One experiment relates to MYB mRNA. In words: Splicing RT-qPCR assay, MYB canonical (CJ) and alternative (AJ) junction mRNA. Type of experiment: cell-based, human. The note with it: Homo sapiens, A673 or K562 cells, 24 hours compound treatment, RT-qPCR; for AC50: read-out: MYB AJ (AC50, increase in alternative junction mRNA); for IC50: read-out: MYB CJ (IC50, decrease in canonical junction mRNA). The method in brief:
(§1)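 Read-out is the abundance of canonical-junction versus new alternative-exon-junction mRNA, determined by real-time qPCR after cDNA synthesis and normalized to a housekeeping gene. It is measured in A673 or K562 cells exposed to compounds for 24 h, top dose 10 uM.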

Another experiment has as its system HTT mRNA. Briefly: Splicing RT-qPCR assay, HTT canonical (CJ) and alternative (AJ) junction mRNA. The experiment is classed as cell-based, human. As to conditions: Homo sapiens, A673 or K562 cells, 24 hours compound treatment; for IC50: read-out: HTT CJ (IC50, decrease in canonical junction mRNA); for AC50: read-out: HTT AJ (AC50, increase in alternative junction mRNA). In short, it runs like this:
as §1
On the technique in general: Quantitative PCR measures a nucleic acid by following its amplification.

Among the data in US20250154169A1, “COMPOUNDS AND METHODS FOR MODULATING SPLICING” (REMIX THERAPEUTICS INC., priority 2021, published 2025) are AC50 and IC50 values, retold here.

A word on the AC50: it is the concentration giving half of the maximal activity seen. Usually IC50 stands for the point on the concentration scale where inhibition reaches its midpoint.

Read-outs that look alike come from different tables or passages of the source.

As to `CN[C@@H]1CCN(c2ccc(C(=O)Nc3cn4cc(C)nc4c(N4CCOCC4)n3)c3nn(C)cc23)C1` [Compound 612, 2-methyl-N-[2-methyl-8-(morpholin-4-yl)imidazo[1,2-a]pyrazin-6-yl]-4-[(3R)-3-(methylamino)pyrrolidin-1-yl]indazole-7-carboxamide], the figures for the AC50 with MYB mRNA (24 h) and with HTT mRNA were more than 10000 nM and more than 10 µM, respectively. Further, the IC50 is more than 10000 nM with MYB mRNA (24 h) and more than 10 µM in the experiment on HTT mRNA (24 h).
Consider `CN[C@@H]1CCN(c2ccc(C(=O)Nc3cn4cc(C)nc4c(Cl)n3)c3nn(C)cc23)C1` [Compound 614], for which the AC50 with MYB mRNA (24 h) is 100 to 1000 nM; in the experiment with HTT mRNA it was more than 10 µM. Further, the values for the IC50 in the experiment with MYB mRNA (24 h) and in the experiment on HTT mRNA (24 h) were 100 to 1000 nM and more than 10 µM, respectively.
For `CCn1cc2c(N3C[C@@H](C)N[C@@H](C4CC4)C3)ccc(C(=O)Nc3cc(F)c4nc(C)cn4c3)c2n1` [Compound 616, 4-((3S,5R)-3-cyclopropyl-5-methylpiperazin-1-yl)-2-ethyl-N-(8-fluoro-2-methylimidazo[1,2-a]pyridin-6-yl)-2H-indazole-7-carboxamide], the AC50 in the experiment with MYB mRNA (24 h) was in the range of 100 to 1000 nM; in the experiment on HTT mRNA, 1 to 10 µM. Besides, the IC50 in the experiment with MYB mRNA (24 h) was in the range of 100 to 1000 nM; with HTT mRNA (24 h), 0.1 to 1 µM.
For the compound `CCn1cc2c(N3C[C@@H](C4CC4)N[C@@H](C)C3)ccc(C(=O)Nc3cc(F)c4nc(C)cn4c3)c2n1` [Compound 617, 4-((3R,5S)-3-cyclopropyl-5-methylpiperazin-1-yl)-2-ethyl-N-(8-fluoro-2-methylimidazo[1,2-a]pyridin-6-yl)-2H-indazole-7-carboxamide], the AC50 in the experiment with MYB mRNA (24 h) is 1000 to 10000 nM; in the experiment on HTT mRNA, more than 10 µM. Also, the IC50 in the experiment on MYB mRNA (24 h) is 100 to 1000 nM; in the experiment on HTT mRNA (24 h) it was 1 to 10 µM.
The corresponding values for `CCn1cc2c(N3CC[C@@H](N(C)C)C3)cc(Cl)c(C(=O)Nc3cc(F)c4nc(C)cn4c3)c2n1` [Compound 619, 6-chloro-4-[(3R)-3-(dimethylamino)pyrrolidin-1-yl]-2-ethyl-N-{8-fluoro-2-methylimidazo[1,2-a]pyridin-6-yl}indazole-7-carboxamide] are 100 to 1000 nM, more than 10 µM, 100 to 1000 nM and more than 10 µM.
The corresponding values for `Cc1cn2cc(NC(=O)c3ccc(N4CC[C@@H](N5C[C@@H](C)N[C@@H](C)C5)C4)c4cn(C)nc34)cc(F)c2n1` [Compound 621, 4-[(3R)-3-[(3R,5S)-3,5-dimethylpiperazin-1-yl]pyrrolidin-1-yl]-N-{8-fluoro-2-methylimidazo[1,2-a]pyridin-6-yl}-2-methylindazole-7-carboxamide] are 100 to 1000 nM, more than 10 µM, 1000 to 10000 nM and more than 10 µM.
For `Cc1cn2cc(NC(=O)c3ccc(N4CCC(N5C6CNCC65)C4)c4cn(C)nc34)cc(F)c2n1` (centres unmarked) [Compound 622, 4-(3-{3,6-diazabicyclo[3.1.0]hexan-6-yl}pyrrolidin-1-yl)-N-{8-fluoro-2-methylimidazo[1,2-a]pyridin-6-yl}-2-methylindazole-7-carboxamide], in the experiment with MYB mRNA, the AC50 was more than 10000 nM and the IC50 was 1000 to 10000 nM. In the experiment with HTT mRNA, the AC50 was more than 10 µM and the IC50 is more than 10 µM.
As to `CN[C@@H]1CCN(c2ccc(C(=O)Nc3nc(OC)c4nn(C)cc4n3)c3nn(C)cc23)C1` [Compound 624, N-{7-methoxy-2-methylpyrazolo[4,3-d]pyrimidin-5-yl}-2-methyl-4-[(3R)-3-(methylamino)pyrrolidin-1-yl]indazole-7-carboxamide], the results for the AC50 in the experiment with MYB mRNA (24 h) and in the experiment on HTT mRNA were 1000 to 10000 nM and 1 to 10 µM, respectively. The IC50 in the experiment with MYB mRNA (24 h) is 1000 to 10000 nM; in the experiment with HTT mRNA (24 h), 1 to 10 µM.
Turning to `CN[C@@H]1CCN(c2ccc(C(=O)Nc3cn4cc(C)nc4c(OC4CC4)n3)c3nn(C)cc23)C1` [Compound 626, N-{8-cyclopropoxy-2-methylimidazo[1,2-a]pyrazin-6-yl}-2-methyl-4-[(3R)-3-(methylamino)pyrrolidin-1-yl]indazole-7-carboxamide], the AC50 with MYB mRNA (24 h) was 100 to 1000 nM; in the experiment with HTT mRNA, 1 to 10 µM. Besides, the IC50 with MYB mRNA (24 h) fell in the range of 100 to 1000 nM; in the experiment on HTT mRNA (24 h), 1 to 10 µM.
For `CCn1cc2c(N3CCC(NC4CC4)CC3)cc(Cl)c(C(=O)Nc3cc(F)c4nc(C)cn4c3)c2n1` [Compound 627], the AC50 with MYB mRNA (24 h) was in the range of 100 to 1000 nM; with HTT mRNA, 1 to 10 µM. Moreover, the figures for the IC50 in the experiment with MYB mRNA (24 h) and in the experiment with HTT mRNA (24 h) were 100 to 1000 nM and 1 to 10 µM, respectively.
Regarding `Cc1cn2cc(NC(=O)c3ccc(N4CCC(N5C6COCC65)C4)c4cn(C)nc34)cc(F)c2n1` (centres unmarked) [Compound 629], the AC50 in the experiment on MYB mRNA is 1000 to 10000 nM; with HTT mRNA, 1 to 10 µM. Besides, the figures for the 50% inhibitory concentration (IC50) in the experiment with MYB mRNA and in the experiment with HTT mRNA were 1000 to 10000 nM and 1 to 10 µM, respectively.
`CNc1nc(NC(=O)c2ccc(N3CC[C@@H](NC)C3)c3cn(C)nc23)cn2cc(C)nc12` [Compound 631, 2-methyl-N-[2-methyl-8-(methylamino)imidazo[1,2-a]pyrazin-6-yl]-4-[(3R)-3-(methylamino)pyrrolidin-1-yl]indazole-7-carboxamide]: the AC50 is 1000 to 10000 nM in the experiment with MYB mRNA (24 h) and more than 10 µM in the experiment with HTT mRNA. Besides, the values for the IC50 with MYB mRNA (24 h) and in the experiment on HTT mRNA (24 h) were 1000 to 10000 nM and more than 10 µM, respectively.
Turning to `Cc1cn2cc(NC(=O)c3ccc(N4CC[C@@H](NC5C6COCC65)C4)c4cn(C)nc34)cc(F)c2n1` (some centres unmarked) [Compound 633], the AC50 was 100 to 1000 nM with MYB mRNA (24 h) and more than 10 µM with HTT mRNA. Also, the IC50 was in the range of 100 to 1000 nM with MYB mRNA (24 h) and 1 to 10 µM with HTT mRNA (24 h).
Take `CCn1cc2c(N3CC[C@@H](NC)C3)cc(O)c(C(=O)Nc3cc(F)c4nc(C)cn4c3)c2n1` [Compound 635]: the AC50 in the experiment with MYB mRNA (24 h) is 1000 to 10000 nM; in the experiment with HTT mRNA, more than 10 µM. Further, the concentration for half-maximal inhibition (IC50) is 100 to 1000 nM with MYB mRNA (24 h) and more than 10 µM with HTT mRNA (24 h).
Take `CCn1cc2c(N3CC[C@@H](N(C)C)C3)cc(O)c(C(=O)Nc3cc(F)c4nc(C)cn4c3)c2n1` [Compound 637]: the AC50 in the experiment on MYB mRNA (24 h) was 1000 to 10000 nM; in the experiment on HTT mRNA, 1 to 10 µM. In addition, the IC50 in the experiment with MYB mRNA (24 h) is 100 to 1000 nM; in the experiment with HTT mRNA (24 h), 1 to 10 µM.
`Cc1cn2cc(NC(=O)c3ccc(N4CC[C@@H](NCC5(O)CC5)C4)c4cn(C)nc34)cc(F)c2n1` [Compound 639]: the AC50 in the experiment on MYB mRNA (24 h) was 100 to 1000 nM; in the experiment with HTT mRNA, more than 10 µM. Further, the IC50 in the experiment with MYB mRNA (24 h) is 100 to 1000 nM; in the experiment with HTT mRNA (24 h), more than 10 µM.
Regarding `CCC(=O)CN[C@@H]1CCN(c2ccc(C(=O)Nc3cc(F)c4nc(C)cn4c3)c3nn(C)cc23)C1` [Compound 641], the AC50 in the experiment with MYB mRNA (24 h) was less than 100 nM; in the experiment on HTT mRNA it was 1 to 10 µM. The IC50 in the experiment on MYB mRNA (24 h) was less than 100 nM; with HTT mRNA (24 h) it was 1 to 10 µM.
Regarding `Cc1cn2cc(NC(=O)c3ccc(N4CC[C@@H](NC5(CO)CC5)C4)c4cn(C)nc34)cc(F)c2n1` [Compound 643], the figures for the AC50 in the experiment with MYB mRNA (24 h) and with HTT mRNA were 100 to 1000 nM and more than 10 µM, respectively. The values for the IC50 with MYB mRNA (24 h) and in the experiment on HTT mRNA (24 h) were 100 to 1000 nM and more than 10 µM, respectively.
Take `Cc1cn2cc(NC(=O)c3ccc(N4CC[C@@H](NC5CC5(C)C)C4)c4cn(C)nc34)cc(F)c2n1` (some centres unmarked) [Compound 645]: the AC50 with MYB mRNA (24 h) is 100 to 1000 nM; in the experiment with HTT mRNA, more than 10 µM. Besides, the IC50 with MYB mRNA (24 h) lay within 100 to 1000 nM; in the experiment on HTT mRNA (24 h), 1 to 10 µM.
As for `Cc1cn2cc(NC(=O)c3ccc(N4CC[C@@H](NC5CC56CCOCC6)C4)c4cn(C)nc34)cc(F)c2n1` (some centres unmarked) [Compound 649], the AC50 in the experiment on MYB mRNA (24 h) is 100 to 1000 nM; with HTT mRNA it was more than 10 µM. Further, the figures for the IC50 in the experiment on MYB mRNA (24 h) and in the experiment with HTT mRNA (24 h) were 100 to 1000 nM and more than 10 µM, respectively.
